Values quoted from earlier work as cited in PMC6644309 (ACS Omega, 2018).
Converted amounts (≈) assume the structure as drawn.

How the values were obtained:
[1] = not given; remark: listed apart in the source
[2] = in vivo

In the case of `CCCc1nc2c(C)cc(-c3nc4ccccc4n3C)cc2n1Cc1ccc(-c2ccccc2C(=O)O)cc1` [TLM, 2-[4-[[4-methyl-6-(1-methylbenzimidazol-2-yl)-2-propylbenzimidazol-1-yl]methyl]phenyl]benzoic acid], the “pKa, benzimidazole (basic) group, first” value is listed as 4.1, the “pKa, benzimidazole (basic) group, second” value is listed as 6.0 and the “pKa, carboxylic (acidic) group” value is listed as 3.5. For the same molecule, the solubility in water ([1]; in water) was 0.09 µg/mL (≈ 0.175 µM), the “solubility at pH 3–7 (in words)” value ([1]; pH 3–7, physiological pH) was “practically insoluble” and the bioavailability [2] was 42–58%.
